We go through eight compounds from patent US8580918B2, “Peptidic GLP-2 agonists” (Ferring B.V., priority 2009, dated 2013).

Where a SMILES comes first, the peptide text is derived from it. [ ]: non-standard residue; d: D form. d2Thi = N[C@H](Cc1cccs1)C(=O)O; Nle = CCCC[C@H](N)C(=O)O

The first data set in a line: Pharmacokinetics in rats after intravenous bolus injection (systemic clearance). The class given is in vivo. Particulars: rat, plasma, 0.1 mg FB/kg, adult male Sprague-Dawley rats, i.v. bolus, dose 0.10 mg FB/kg, read-out: CL (ml/kg/min) Average. Summed up:
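Systemic clearance from noncompartmental analysis as dose per kg over trapezoidal AUC extrapolated to infinity, mean and SD across animals. Plasma (K2EDTA) levels by LC/MS/MS after single IV jugular-vein bolus, 0.1-1.0 mg/kg, in 3-4 cannulated male Sprague-Dawley rats.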
On to `CCCC[C@H](NC(=O)[C@H](CCC(=O)O)NC(=O)[C@H](CC(=O)O)NC(=O)[C@H](CO)NC(=O)[C@H](Cc1ccccc1)NC(=O)[C@H](CO)NC(=O)CNC(=O)[C@H](CC(=O)O)NC(=O)CNC(=O)[C@@H](N)Cc1cnc[nH]1)C(=O)N[C@H](Cc1ccccc1)C(=O)N[C@H](C(=O)N[C@H](C(=O)N[C@@H](CC(C)C)C(=O)N[C@@H](CC(=O)O)C(=O)N[C@@H](CC(C)C)C(=O)N[C@@H](CC(C)C)C(=O)N[C@@H](C)C(=O)N[C@@H](C)C(=O)N[C@@H](CCCNC(=N)N)C(=O)N[C@@H](CC(=O)O)C(=O)N[C@@H](Cc1ccccc1)C(=O)N[C@H](C(=O)N[C@@H](CC(N)=O)C(=O)N[C@@H](Cc1c[nH]c2ccccc12)C(=O)N[C@@H](CC(C)C)C(=O)N[C@H](C(=O)N[C@@H](CCC(N)=O)C(=O)N[C@H](C(=O)N[C@@H](CCCCN)C(=O)N[C@H](C(=O)N[C@H](C(=O)N[C@@H](CC(=O)O)C(N)=O)[C@@H](C)O)[C@@H](C)CC)[C@@H](C)O)[C@@H](C)CC)[C@@H](C)CC)[C@@H](C)CC)[C@@H](C)O` [Compound 51, [Gly2,Nle10,D-Phe11,Leu16] hGLP-2(1-33)-NH2] (H-HGDGSFSDE[Nle][dF]TILDLLAARDFINWLIQTKITD-NH2), for which the clearance was found to be 0.2 mL/kg/min.

Still in this data set, the particulars now being: rat, plasma, 0.2 mg FB/kg, adult male Sprague-Dawley rats, i.v. bolus, dose 0.20 mg FB/kg, read-out: CL (ml/kg/min) Average.
On to `CCCC[C@H](NC(=O)[C@H](CCC(=O)O)NC(=O)[C@H](CC(=O)O)NC(=O)[C@H](CO)NC(=O)[C@H](Cc1ccccc1)NC(=O)[C@H](CO)NC(=O)CNC(=O)[C@H](CC(=O)O)NC(=O)CNC(=O)[C@@H](N)Cc1c[nH]cn1)C(=O)N[C@H](Cc1cccs1)C(=O)N[C@H](C(=O)N[C@H](C(=O)N[C@@H](CC(C)C)C(=O)N[C@@H](CC(=O)O)C(=O)N[C@@H](CC(C)C)C(=O)N[C@@H](CC(C)C)C(=O)N[C@@H](C)C(=O)N[C@@H](C)C(=O)N[C@@H](CCCNC(=N)N)C(=O)N[C@@H](CC(=O)O)C(=O)N[C@@H](Cc1ccccc1)C(=O)N[C@H](C(=O)N[C@@H](CC(N)=O)C(=O)N[C@@H](Cc1c[nH]c2ccccc12)C(=O)N[C@@H](CC(C)C)C(=O)N[C@H](C(=O)N[C@@H](CCC(N)=O)C(=O)N[C@H](C(=O)N[C@@H](CCCCN)C(N)=O)[C@@H](C)O)[C@@H](C)CC)[C@@H](C)CC)[C@@H](C)CC)[C@@H](C)O` [Compound 45, [Gly2,Nle10,D-Thi11,Leu16] hGLP-2 (1-30)-NH2] (H-HGDGSFSDE[Nle][d2Thi]TILDLLAARDFINWLIQTK-NH2), for which the clearance amounted to 0.33 mL/kg/min.
With `CCCC[C@H](NC(=O)[C@H](CCC(=O)O)NC(=O)[C@H](CC(=O)O)NC(=O)[C@H](CO)NC(=O)[C@H](Cc1ccccc1)NC(=O)[C@H](CO)NC(=O)CNC(=O)[C@H](CC(=O)O)NC(=O)CNC(=O)[C@@H](N)Cc1cnc[nH]1)C(=O)N[C@H](Cc1cccs1)C(=O)N[C@H](C(=O)N[C@H](C(=O)N[C@@H](CC(C)C)C(=O)N[C@@H](CC(=O)O)C(=O)N[C@@H](Cc1ccccc1)C(=O)N[C@@H](CC(C)C)C(=O)N[C@@H](C)C(=O)N[C@@H](C)C(=O)N[C@@H](CCCNC(=N)N)C(=O)N[C@@H](CC(=O)O)C(=O)N[C@@H](Cc1ccccc1)C(=O)N[C@H](C(=O)N[C@@H](CC(N)=O)C(=O)N[C@@H](Cc1c[nH]c2ccccc12)C(=O)N[C@@H](CC(C)C)C(=O)N[C@H](C(=O)N[C@@H](CCC(N)=O)C(=O)N[C@H](C(=O)N[C@@H](CCCCN)C(N)=O)[C@@H](C)O)[C@@H](C)CC)[C@@H](C)CC)[C@@H](C)CC)[C@@H](C)O` [Compound 46, [Gly2,Nle10,D-Thi11,Phe16] hGLP-2 (1-30)-NH2] (H-HGDGSFSDE[Nle][d2Thi]TILDFLAARDFINWLIQTK-NH2), the clearance was determined as 0.26 mL/kg/min.
With `CCCC[C@H](NC(=O)[C@H](CCC(=O)O)NC(=O)[C@H](CC(=O)O)NC(=O)[C@H](CO)NC(=O)[C@H](Cc1ccccc1)NC(=O)[C@H](CO)NC(=O)CNC(=O)[C@H](CC(=O)O)NC(=O)CNC(=O)[C@@H](N)Cc1c[nH]cn1)C(=O)N[C@H](Cc1ccccc1)C(=O)N[C@H](C(=O)N[C@H](C(=O)N[C@@H](CC(C)C)C(=O)N[C@@H](CC(=O)O)C(=O)N[C@@H](Cc1ccccc1)C(=O)N[C@@H](CC(C)C)C(=O)N[C@@H](C)C(=O)N[C@@H](C)C(=O)N[C@@H](CCCNC(=N)N)C(=O)N[C@@H](CC(=O)O)C(=O)N[C@@H](Cc1ccccc1)C(=O)N[C@H](C(=O)N[C@@H](CC(N)=O)C(=O)N[C@@H](Cc1c[nH]c2ccccc12)C(=O)N[C@@H](CC(C)C)C(=O)N[C@H](C(=O)N[C@@H](CCC(N)=O)C(=O)N[C@H](C(=O)N[C@@H](CCCCN)C(N)=O)[C@@H](C)O)[C@@H](C)CC)[C@@H](C)CC)[C@@H](C)CC)[C@@H](C)O` [Compound 47, [Gly2,Nle10,D-Phe11,Phe16] hGLP-2 (1-30)-NH2] (H-HGDGSFSDE[Nle][dF]TILDFLAARDFINWLIQTK-NH2), the clearance was determined as 0.3 mL/kg/min.
`CCCC[C@H](NC(=O)[C@H](CCC(=O)O)NC(=O)[C@H](CC(=O)O)NC(=O)[C@H](CO)NC(=O)[C@H](Cc1ccccc1)NC(=O)[C@H](CO)NC(=O)CNC(=O)[C@H](CC(=O)O)NC(=O)CNC(=O)[C@@H](N)Cc1cnc[nH]1)C(=O)N[C@H](Cc1ccccc1)C(=O)N[C@H](C(=O)N[C@H](C(=O)N[C@@H](CC(C)C)C(=O)N[C@@H](CC(=O)O)C(=O)N[C@@H](CC(C)C)C(=O)N[C@@H](CC(C)C)C(=O)N[C@@H](C)C(=O)N[C@@H](C)C(=O)N[C@@H](CCCNC(=N)N)C(=O)N[C@@H](CC(=O)O)C(=O)N[C@@H](Cc1ccccc1)C(=O)N[C@H](C(=O)N[C@@H](CC(N)=O)C(=O)N[C@@H](Cc1c[nH]c2ccccc12)C(=O)N[C@@H](CC(C)C)C(=O)N[C@H](C(=O)N[C@@H](CCC(N)=O)C(=O)N[C@H](C(=O)N[C@@H](CCCCN)C(N)=O)[C@@H](C)O)[C@@H](C)CC)[C@@H](C)CC)[C@@H](C)CC)[C@@H](C)O` [Compound 48, [Gly2,Nle10,D-Phe11,Leu16] hGLP-2 (1-30)-NH2] (H-HGDGSFSDE[Nle][dF]TILDLLAARDFINWLIQTK-NH2): the clearance is 0.37 mL/kg/min.
On to `CCCC[C@H](NC(=O)[C@H](CCC(=O)O)NC(=O)[C@H](CC(=O)O)NC(=O)[C@H](CO)NC(=O)[C@H](Cc1ccccc1)NC(=O)[C@H](CO)NC(=O)CNC(=O)[C@H](CC(=O)O)NC(=O)CNC(=O)[C@@H](N)Cc1c[nH]cn1)C(=O)N[C@H](Cc1ccccc1)C(=O)N[C@H](C(=O)N[C@H](C(=O)N[C@@H](CC(C)C)C(=O)N[C@@H](CC(=O)O)C(=O)N[C@@H](Cc1ccc(O)cc1)C(=O)N[C@@H](CC(C)C)C(=O)N[C@@H](C)C(=O)N[C@@H](C)C(=O)N[C@@H](CCCNC(=N)N)C(=O)N[C@@H](CC(=O)O)C(=O)N[C@@H](Cc1ccccc1)C(=O)N[C@H](C(=O)N[C@@H](CC(N)=O)C(=O)N[C@@H](Cc1c[nH]c2ccccc12)C(=O)N[C@@H](CC(C)C)C(=O)N[C@H](C(=O)N[C@@H](CCC(N)=O)C(=O)N[C@H](C(=O)N[C@@H](CCCCN)C(N)=O)[C@@H](C)O)[C@@H](C)CC)[C@@H](C)CC)[C@@H](C)CC)[C@@H](C)O` [Compound 49, [Gly2,Nle10,D-Phe11,Tyr16] hGLP-2 (1-30)-NH2] (H-HGDGSFSDE[Nle][dF]TILDYLAARDFINWLIQTK-NH2), for which the clearance worked out at 0.48 mL/kg/min.
Same read-out and setting: next, `CCCC[C@H](NC(=O)[C@H](CCC(=O)O)NC(=O)[C@H](CC(=O)O)NC(=O)[C@H](CO)NC(=O)[C@H](Cc1ccccc1)NC(=O)[C@H](CO)NC(=O)CNC(=O)[C@H](CC(=O)O)NC(=O)CNC(=O)[C@@H](N)Cc1c[nH]cn1)C(=O)N[C@H](Cc1cccs1)C(=O)N[C@H](C(=O)N[C@H](C(=O)N[C@@H](CC(C)C)C(=O)N[C@@H](CC(=O)O)C(=O)N[C@@H](Cc1ccc(O)cc1)C(=O)N[C@@H](CC(C)C)C(=O)N[C@@H](C)C(=O)N[C@@H](C)C(=O)N[C@@H](CCCNC(=N)N)C(=O)N[C@@H](CC(=O)O)C(=O)N[C@@H](Cc1ccccc1)C(=O)N[C@H](C(=O)N[C@@H](CC(N)=O)C(=O)N[C@@H](Cc1c[nH]c2ccccc12)C(=O)N[C@@H](CC(C)C)C(=O)N[C@H](C(=O)N[C@@H](CCC(N)=O)C(=O)N[C@H](C(=O)N[C@@H](CCCCN)C(N)=O)[C@@H](C)O)[C@@H](C)CC)[C@@H](C)CC)[C@@H](C)CC)[C@@H](C)O` [Compound 50, [Gly2,Nle10,D-Thi11,Tyr16] hGLP-2 (1-30)-NH2] (H-HGDGSFSDE[Nle][d2Thi]TILDYLAARDFINWLIQTK-NH2): 0.52 mL/kg/min.
On the same count and under the same terms, next, `CCCC[C@H](NC(=O)[C@H](CCC(=O)O)NC(=O)[C@H](CC(=O)O)NC(=O)[C@H](CO)NC(=O)[C@H](Cc1ccccc1)NC(=O)[C@H](CO)NC(=O)CNC(=O)[C@H](CC(=O)O)NC(=O)CNC(=O)[C@@H](N)Cc1cnc[nH]1)C(=O)N[C@H](Cc1ccccc1)C(=O)N[C@H](C(=O)N[C@H](C(=O)N[C@@H](CC(C)C)C(=O)N[C@@H](CC(=O)O)C(=O)N[C@@H](CC(C)C)C(=O)N[C@@H](CC(C)C)C(=O)N[C@@H](C)C(=O)N[C@@H](C)C(=O)N[C@@H](CCCNC(=N)N)C(=O)N[C@@H](CC(=O)O)C(=O)N[C@@H](Cc1ccccc1)C(=O)N[C@H](C(=O)N[C@@H](CC(N)=O)C(=O)N[C@@H](Cc1c[nH]c2ccccc12)C(=O)N[C@@H](CC(C)C)C(=O)N[C@H](C(=O)N[C@@H](CCC(N)=O)C(=O)N[C@H](C(=O)N[C@@H](CCCCN)C(=O)N[C@H](C(=O)N[C@H](C(=O)N[C@@H](CC(=O)O)C(N)=O)[C@@H](C)O)[C@@H](C)CC)[C@@H](C)O)[C@@H](C)CC)[C@@H](C)CC)[C@@H](C)CC)[C@@H](C)O` [Compound 51, [Gly2,Nle10,D-Phe11,Leu16] hGLP-2(1-33)-NH2] (H-HGDGSFSDE[Nle][dF]TILDLLAARDFINWLIQTKITD-NH2): 0.27 mL/kg/min.
Take `CCCC[C@H](NC(=O)[C@H](CCC(=O)O)NC(=O)[C@H](CC(=O)O)NC(=O)[C@H](CO)NC(=O)[C@H](Cc1ccccc1)NC(=O)[C@H](CO)NC(=O)CNC(=O)[C@H](CC(=O)O)NC(=O)CNC(=O)[C@@H](N)Cc1c[nH]cn1)C(=O)N[C@H](Cc1ccccc1)C(=O)N[C@H](C(=O)N[C@H](C(=O)N[C@@H](CC(C)C)C(=O)N[C@@H](CC(=O)O)C(=O)N[C@@H](CC(C)C)C(=O)N[C@@H](CC(C)C)C(=O)N[C@@H](C)C(=O)N[C@H](C(=O)N[C@@H](CCCNC(=N)N)C(=O)N[C@@H](CC(=O)O)C(=O)N[C@@H](Cc1ccccc1)C(=O)N[C@H](C(=O)N[C@@H](CC(N)=O)C(=O)N[C@@H](Cc1c[nH]c2ccccc12)C(=O)N[C@@H](CC(C)C)C(=O)N[C@H](C(=O)N[C@@H](CCC(N)=O)C(=O)N[C@H](C(=O)N[C@@H](CCCCN)C(N)=O)[C@@H](C)O)[C@@H](C)CC)[C@@H](C)CC)[C@@H](C)O)[C@@H](C)CC)[C@@H](C)O` [Compound 52, [Gly2,Nle10,D-Phe11,Leu16,Thr19] hGLP-2(1-30)-NH2] (H-HGDGSFSDE[Nle][dF]TILDLLATRDFINWLIQTK-NH2): the clearance came out at 0.49 mL/kg/min.
